# Literature values in US8529952B2 (Ethypharm, priority 1999, dated 2013).
smiles,measurement,setting,value
CC(C)(Oc1ccc(C(=O)c2ccc(Cl)cc2)cc1)C(=O)O [fenofibric acid],mean concentration in the plasma,dose of 300 mg of fenofibrate per day,~15 micrograms/ml
same,time to maximum concentration in the plasma after ingestion,on average,five
same,half-life for elimination from the plasma,plasma,~20 h
